Like-named read-outs stand apart in the source and are kept apart here.
How the values were obtained:
[1] = Determination of plasma concentrations after oral dosing; assay type: in vivo; conditions: rat, male Wistar rats, orally dosed 10 mg/kg, read-out: Plasma c; for concentration at 0.5 h: t = 30 min; for concentration at 5 h: t = 5 h
Protocol: Male Wistar rats (220-280 g) were orally dosed (10 mg/kg) with test compounds. Control animals received the vehicle only. Blood samples were drawn from the tail artery 0.5 and 5 hours after the treatment and collected into pre-cooled Li-heparinized tubes. The plasma was separated by centrifugation (11000 g, 5 min) and stored at -80° C. until analysis.
The analytes were extracted from 200 μl of acidified plasma (100 μl of 1 M HCI) with 5 ml of ethyl acetate. The organic phase (4 ml) was evaporated to dryness under a stream of nitrogen at 40° C. The residue was redissolved in 200 μl of dimethylsulphoxide and 30 μl of it was analyzed by HPLC with amperometric detection. The electrode potential was +700 mV.

S-COMT enzyme = biological target: T1, S-COMT enzyme (Homo sapiens, UniProt P21964); assay: Determination of IC50 values, COMT inhibition (dopamine methylation, HPLC); assay type: biochemical; conditions: S-COMT enzyme (about 30 nM), 0.05 mM AdoMet, 3 mM dopamine, 5 min preincubation, 15 min at 37° C., pH 7.4
T1 sequence (P21964 1-221 isoform P21964-2): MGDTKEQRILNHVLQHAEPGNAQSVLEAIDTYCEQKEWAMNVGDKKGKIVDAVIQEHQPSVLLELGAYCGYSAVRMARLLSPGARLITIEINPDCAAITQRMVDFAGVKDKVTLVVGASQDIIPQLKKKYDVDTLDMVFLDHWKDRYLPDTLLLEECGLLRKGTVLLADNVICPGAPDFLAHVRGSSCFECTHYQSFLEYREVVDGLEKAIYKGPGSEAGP
Protocol: The studied inhibitors were first dissolved into 0.1 M NaOH solution and then diluted with distilled water to 0.5 mM inhibitor concentration. From this stock solution the inhibitor concentrations were adjusted by diluting the desired amounts of stock solution with 0.05 M phosphate buffer, pH 7.4. The studied sample solutions were prepared into the Eppendorf tubes. The final concentrations of the studied samples were; -100 mM phosphate buffer, 5 mM MgCl2, 0.05 mM AdoMet, S-COMT enzyme (about 30 nM) and the inhibitor.
The samples were mixed with Vortex, and incubated for 5 min at 37° C. The reactions were initiated with 3 mM dopamine and carried on for 15 min at 37° C. The reactions were stopped with 4 M perchloric acid and stabilized afterwards for 10 min in ice bath. The sample solutions were centrifuged for 10 min, and the methylated products, 3-methyldopamineand 4-methyidopamine, were analysed with HPLC.

Row | Compound | IC50 (S-COMT enzyme) [nM] | further results
1 | CC(=O)C(=Cc1cc(O)c(O)c([N+](=O)[O-])c1)C(C)=O [Comparison compound 2, 2[(3,4-dihydroxy-5-nitrophenyl)methylene]-2,4-pentanedione, reference compound] |  | concentration at 0.5 h ([1]; plasma): 530 ng/mL; concentration at 5 h ([1]; plasma): < 25 ng/mL
2 | O=C(O)CCc1c([N+](=O)[O-])cc(O)c(O)c1[N+](=O)[O-] [Example 11, 3-(3,4-DIHYDROXY-2,6-DINITROPHENYL)-PROPANOIC ACID] | 30 | concentration at 0.5 h ([1]; in vivo): 2100 ng/mL; concentration at 5 h ([1]; in vivo): 490 ng/mL
3 | O=C(O)CCCCc1c([N+](=O)[O-])cc(O)c(O)c1[N+](=O)[O-] [Example 13, 5-(3,4-DIHYDROXY-2,6-DINITROPHENYL)-PENTANOIC ACID] | 20 | 
4 | O=Cc1cc(O)c(O)c(C=O)c1CCCCC(=O)O [Example 14, 5-(2.6-DIFORMYL-3,4-DIHYDROXYPHENYL)PENTANOIC ACID] | 30 | 
5 | O=Cc1cc(O)c(O)c(C=O)c1CCC(=O)O [Example 15, 3-(2,6-DIFORMYL-3,4-DIHYDROXYPHENYL)PROPANOIC ACID] | 60 | 
6 | N#Cc1cc(O)c(O)c(C#N)c1CCCCC(=O)O [Example 16, 5-(3,4-DIHYDROXY-2,6-DICYANOPHENYL)PENTANOIC ACID] | 15 | concentration at 0.5 h ([1]; plasma): 2000 ng/mL; concentration at 5 h ([1]; plasma): 150 ng/mL
7 | N#Cc1cc(O)c(O)c(C#N)c1CCC(=O)O [Example 17, 3-(2,6-DICYANO-3,4-DIHYDROXYPHENYL)PROPANOIC ACID] | 20 | 

Source: patent publication US6150412A, “Catechol derivatives” (Orion-yhtyma Oy, priority 1995, dated 2000)
